Data set [1] relates to subcutaneous chondrosarcoma tumors. Description: Chondrosarcoma tumor growth delay after PDT. The conditions noted are these: rats; drug dose 2.0 μmol/kg; light dose 125 J/cm2; optimal conditions, 24 hrs post drug administration. The class given is in vivo, Sprague-Dawley rats. On the procedure:
The carbamate compounds were formulated in egg yolk phosphatidyl choline (EYP) and phosphate buffered saline (PBS) (pH 7.4). These were sterilized by filtration through a 0.2-micron nylon filter and determined to be stable for at least several weeks following formulation by HPLC. Five Sprague-Dawley rats with subcutaneous chondrosarcoma tumors in the flank of a certain volume (150-250 mm^3) were injected intravenously with various drugs at various doses. Three hours after the injection the tumors were exposed to 664-nm light at light doses of 125 J/cm^2 or 200 J/cm^2. The end point of the study was the observation of tumor regrowth (averaged over the animals) following the treatment.
Table 2 illustrates the results for the best drug and light doses that were tested in the above system and are compared with the well known photosensitizer SnET2 under optimal conditions (24 hrs post drug administration).

For data set [2], the system named is normal skin. As to the kind of experiment: Normal skin clearance (skin response) of photosensitizers in irradiated hairless rats. The class given is in vivo. The conditions noted are these: drug dose 0.5 μmol/Kg, light dose 150 mW/cm^2/125 J at activation wavelength, time point post injection. From the text:
Ester and amide cleavage appear to be the major metabolic routes. As stated previously, one of the inventors' surprising and unexpected biological observations was that the carbamate analogs produce limited skin phototoxicity. Table 1 outlines the normal skin clearance of several carbamate photosensitizers as determined by irradiating hairless rats at the activation wavelength of the photosensitizer at 150 mW/cm2/125 J at different time points post injection. As can be clearly seen, carbamate analogs elicit skin responses at very early time points (1-6 hrs) and not past 6 hrs. […] Examples in Table (1) include compounds (26) and (Chl) and (37) and (35). In these cases the hydroxylated parent tetrapyrroles (Chl) and (35), at drug doses of 0.5 μmol/Kg, elicit maximal normal skin responses at 24 and 48 hrs, respectively. By comparison, their carbamate analogs (26) and (37), at drug doses of 1.0 μmol/Kg and 1.5 μmol/Kg, respectively, elicit maximal skin responses at 6 hrs only. Clearly, if ester metabolism of the carbamate back to the parent hydroxylated macrocycle was rapid in blood plasma one would expect skin responses similar to parent hydroxylated macrocycle. This is not the case. It is known by the present inventors and others that metabolism of the propionic acid methyl ester functionality is generally slow in rat and human blood plasma (10-20% metabolism at 24 hrs).

In the case of `CCOC(=O)C1=Cc2c3nc(cc4nc(cc5[n-]c(cc6[n-]c2c(C)c6CC)c(C)c5CC)C(C)=C4CC)[C@@H](C)[C@]13CC.[Cl-].[Cl-].[Sn]` (racemic) [SnET2, Tin Ethyletiopurpurin], the “Days (regrowth)” value in data set [1] was 13 days.

As for “diethanolsulfonylamide zinc octaethylbenzochlorin [(35)]”, the “Skin Response” value in data set [2] turned out to be 48 h.

The values above are taken from patent publication US20040266748A1, “Photosensitizing carbamate derivatives” (priority 2001, published 2004).
